Results from patent publication US20100227313A1, “Methods and Compositions for Determining Altered Susceptibility of HIV-1 to Protease Inhibitor Treatment” (priority 2007, published 2010).

Test system: HIV-1
Experiment: Resistance test vector (PHENOSENSE) phenotypic susceptibility assay, fold change in IC50, correlated with genotype (Fisher's Exact test, odds ratio)
Assay type: cell-based, human immunodeficiency virus type 1
Text: See Petropoulos et al., 2000, Antimicrob. Agents Chemother. 44:920-928; U.S. Pat. Nos. 5,837,464 and 6,242,187. PHENOSENSE™ is a phenotypic assay that achieves the benefits of phenotypic testing and overcomes the drawbacks of previous assays.
PHENOSENSE™ can obtain results with only one round of viral replication, thereby avoiding selection of subpopulations of virus that can occur during preparation of viral stocks required for assays that rely on fully infectious virus.
A resistance test vector (“RTV”) can then be constructed by incorporating the amplified viral gene sequences into a replication defective viral vector by using any method known in the art of incorporating gene sequences into a vector. In one embodiment, restrictions enzymes and conventional cloning methods are used. See Sambrook et al., 2001, Molecular Cloning: A Laboratory Manual, Cold Spring Harbor Laboratory, 3rd ed., NY; and Ausubel et al., 1989, Current Protocols in Molecular Biology, Greene Publishing Associates and Wiley Interscience, NY. In a preferred embodiment, ApaI and PinAI restriction enzymes are used. Preferably, the replication defective viral vector is the indicator gene viral vector (“IGVV”). In a preferred embodiment, the viral vector contains a means for detecting replication of the RTV. Preferably, the viral vector contains a luciferase expression cassette.
The assay can be performed by first co-transfecting host cells with RTV DNA and a plasmid that expresses the envelope proteins of another retrovirus, for example, amphotropic murine leukemia virus (MLV). Following transfection, viral particles can be harvested from the cell culture and used to infect fresh target cells in the presence of varying amounts of anti-viral drug(s). The completion of a single round of viral replication in the fresh target cells can be detected by the means for detecting replication contained in the vector. In a preferred embodiment, the completion of a single round of viral replication results in the production of luciferase. By monitoring the amount of, e.g., luciferase activity in the presence of the varying amounts of antiviral drug(s), a resistance curve can be constructed by plotting luciferase activity versus drug concentration. The susceptibility of an HIV, or population of HIV, can be determined by measuring the concentration of antiviral drug at which the luciferase activity detected is half-maximal. This number, the IC50, provides a standard and convenient measure of drug resistance.
Patient derived segment(s) corresponding to the HIV protease and reverse transcriptase coding regions were amplified by the reverse transcription polymerase chain reaction method (RT PCR) using viral RNA isolated from viral particles present in the plasma or serum of HIV infected individuals as follows. Viral RNA was isolated from the plasma or serum using oligo-dT magnetic beads (Dynal Biotech, Oslo, Norway), followed by washing and elution of viral RNA. The RT PCR protocol was divided into two steps. A retroviral reverse transcriptase (e.g. Moloney MuLV reverse transcriptase (Roche Molecular Systems, Inc., Branchburg, N.J.; Invitrogen, Carlsbad, Calif.), or avian myeloblastosis virus (AMV) reverse transcriptase, (Boehringer Mannheim, Indianapolis, Ind.) was used to copy viral RNA into cDNA. The cDNA was then amplified using a thermostable DNA polymerase (e.g. Taq (Roche Molecular Systems, Inc., Branchburg, N.J.), Tth (Roche Molecular Systems, Inc., Branchburg, N.J.), PRIMEZYME™ (isolated from Thermus brockianus, Biometra, Gottingen, Germany)) or a combination of thermostable polymerases as described for the performance of “long PCR” (Barnes, W.M., 1994, Proc. Natl. Acad. Sci, USA 91, 2216 20) (e.g. Expand High Fidelity PCR System (Taq+Pwo), (Boehringer Mannheim. Indianapolis, Ind.); GENEAMP XL™ PCR kit (Tth+Vent), (Roche Molecular Systems, Inc., Branchburg, N.J.); or […] II®, Clontech, Palo Alto, Calif.)

CC(C)CN(C[C@@H](O)[C@H](Cc1ccccc1)NC(=O)O[C@H]1CO[C@H]2OCC[C@H]21)S(=O)(=O)c1ccc(N)cc1 [DRV, darunavir]
Odds Ratio (mutation A71I in PR, reduced susceptibility (FC>2)): 1.74
Odds Ratio (mutation A71L in PR, reduced susceptibility (FC>2)): 16.53
Odds Ratio (mutation A71T in PR, increased susceptibility (Table 3)): 0.74
Odds Ratio (mutation A431I in gag, reduced susceptibility (FC>2)): 5.60
Odds Ratio (mutation A431V in gag, reduced susceptibility (FC>2)): 1.94
Odds Ratio (mutation C67F in PR, reduced susceptibility (FC>2)): 3.72
Odds Ratio (mutation C95F in PR, reduced susceptibility (FC>2)): 3.13
Odds Ratio (mutation D30N in PR, increased susceptibility (Table 3)): 0.20
Odds Ratio (mutation D425E in gag, reduced susceptibility (FC>2)): 1.49
Odds Ratio (mutation E35N in PR, reduced susceptibility (FC>2)): 2.90
Odds Ratio (mutation E428D in gag, reduced susceptibility (FC>2)): 2.41
Odds Ratio (mutation E467K in gag, reduced susceptibility (FC>2)): 2.41
Odds Ratio (mutation E468K in gag, reduced susceptibility (FC>2)): 2.24
Odds Ratio (mutation F53L in PR, reduced susceptibility (FC>2)): 2.30
Odds Ratio (mutation F53Y in PR, reduced susceptibility (FC>2)): 3.43
Odds Ratio (mutation F463L in gag, reduced susceptibility (FC>2)): 1.68
Odds Ratio (mutation F463S in gag, reduced susceptibility (FC>2)): 3.18
Odds Ratio (mutation F463V in gag, reduced susceptibility (FC>2)): 2.89
Odds Ratio (mutation F465L in gag, reduced susceptibility (FC>2)): 1.66
Odds Ratio (mutation F465S in gag, reduced susceptibility (FC>2)): 2.45
Odds Ratio (mutation G16A in PR, reduced susceptibility (FC>2)): 3.73
Odds Ratio (mutation G73A in PR, reduced susceptibility (FC>2)): 8.81
Odds Ratio (mutation G73C in PR, reduced susceptibility (FC>2)): 2.24
Odds Ratio (mutation G73T in PR, reduced susceptibility (FC>2)): 7.84
Odds Ratio (mutation H69R in PR, reduced susceptibility (FC>2)): 2.59
Odds Ratio (mutation H441Q in gag, reduced susceptibility (FC>2)): 1.99
Odds Ratio (mutation H441Y in gag, increased susceptibility (Table 3)): 0.59
Odds Ratio (mutation I13V in PR, reduced susceptibility (FC>2)): 1.71
Odds Ratio (mutation I15V in PR, reduced susceptibility (FC>2)): 1.53
Odds Ratio (mutation I47V in PR, reduced susceptibility (FC>2)): 13.64
Odds Ratio (mutation I50L in PR, increased susceptibility (Table 3)): 0.12
Odds Ratio (mutation I54A in PR, reduced susceptibility (FC>2)): 2.37
Odds Ratio (mutation I54L in PR, reduced susceptibility (FC>2)): 5.50
Odds Ratio (mutation I54M in PR, reduced susceptibility (FC>2)): 14.47
Odds Ratio (mutation I64L in PR, increased susceptibility (Table 3)): 0.62
Odds Ratio (mutation I64V in PR, increased susceptibility (Table 3)): 0.84
Odds Ratio (mutation I66F in PR, reduced susceptibility (FC>2)): 3.25
Odds Ratio (mutation I66V in PR, reduced susceptibility (FC>2)): 4.86
Odds Ratio (mutation I72L in PR, reduced susceptibility (FC>2)): 3.02
Odds Ratio (mutation I84V in PR, reduced susceptibility (FC>2)): 7.06
Odds Ratio (mutation I85V in PR, reduced susceptibility (FC>2)): 2.76
Odds Ratio (mutation I93L in PR, increased susceptibility (Table 3)): 0.88
Odds Ratio (mutation I437V in gag, reduced susceptibility (FC>2)): 1.95
Odds Ratio (mutation K20R in PR, reduced susceptibility (FC>2)): 1.90
Odds Ratio (mutation K20T in PR, reduced susceptibility (FC>2)): 1.54
Odds Ratio (mutation K20V in PR, reduced susceptibility (FC>2)): 3.40
Odds Ratio (mutation K43R in PR, increased susceptibility (Table 3)): 0.30
Odds Ratio (mutation K43T in PR, reduced susceptibility (FC>2)): 3.72
Odds Ratio (mutation K45R in PR, increased susceptibility (Table 3)): 0.35
Odds Ratio (mutation K55N in PR, reduced susceptibility (FC>2)): 10.28
Odds Ratio (mutation K55R in PR, reduced susceptibility (FC>2)): 2.70
Odds Ratio (mutation L10F in PR, reduced susceptibility (FC>2)): 2.59
Odds Ratio (mutation L19P in PR, reduced susceptibility (FC>2)): 7.16
Odds Ratio (mutation L23I in PR, reduced susceptibility (FC>2)): 2.10
Odds Ratio (mutation L24F in PR, reduced susceptibility (FC>2)): 8.57
Odds Ratio (mutation L33F in PR, reduced susceptibility (FC>2)): 6.78
Odds Ratio (mutation L63A in PR, increased susceptibility (Table 3)): 0.53
Odds Ratio (mutation L63Q in PR, increased susceptibility (Table 3)): 0.49
Odds Ratio (mutation L63S in PR, increased susceptibility (Table 3)): 0.54
Odds Ratio (mutation L76V in PR, reduced susceptibility (FC>2)): 11.18
Odds Ratio (mutation L89I in PR, reduced susceptibility (FC>2)): 2.16
Odds Ratio (mutation L89M in PR, reduced susceptibility (FC>2)): 1.51
Odds Ratio (mutation L89V in PR, reduced susceptibility (FC>2)): 44.56
Odds Ratio (mutation L449V in gag, reduced susceptibility (FC>2)): 4.73
Odds Ratio (mutation L486S in gag, increased susceptibility (Table 3)): 0.51
Odds Ratio (mutation M36L in PR, reduced susceptibility (FC>2)): 2.20
Odds Ratio (mutation M46I in PR, reduced susceptibility (FC>2)): 1.92
Odds Ratio (mutation M46L in PR, reduced susceptibility (FC>2)): 1.60
Odds Ratio (mutation N88D in PR, increased susceptibility (Table 3)): 0.34
Odds Ratio (mutation N88S in PR, increased susceptibility (Table 3)): 0.17
Odds Ratio (mutation P79A in PR, reduced susceptibility (FC>2)): 5.35
Odds Ratio (mutation P79S in PR, reduced susceptibility (FC>2)): 4.96
Odds Ratio (mutation P453L in gag, reduced susceptibility (FC>2)): 1.80
Odds Ratio (mutation P453V in gag, reduced susceptibility (FC>2)): 6.86
Odds Ratio (mutation P459T in gag, reduced susceptibility (FC>2)): 1.69
Odds Ratio (mutation Q58E in PR, reduced susceptibility (FC>2)): 2.41
Odds Ratio (mutation Q61N in PR, reduced susceptibility (FC>2)): 2.48
Odds Ratio (mutation R452K in gag, reduced susceptibility (FC>2)): 2.99
Odds Ratio (mutation R452S in gag, reduced susceptibility (FC>2)): 3.92
Odds Ratio (mutation S451N in gag, increased susceptibility (Table 3)): 0.68
Odds Ratio (mutation S451T in gag, reduced susceptibility (FC>2)): 1.78
Odds Ratio (mutation S462N in gag, reduced susceptibility (FC>2)): 2.29
Odds Ratio (mutation S488A in gag, reduced susceptibility (FC>2)): 2.02
Odds Ratio (mutation S498L in gag, increased susceptibility (Table 3)): 0.48
Odds Ratio (mutation S499L in gag, increased susceptibility (Table 3)): 0.56
Odds Ratio (mutation T4A in PR, reduced susceptibility (FC>2)): 10.65
Odds Ratio (mutation T4S in PR, reduced susceptibility (FC>2)): 2.80
Odds Ratio (mutation T12P in PR, reduced susceptibility (FC>2)): 1.84
Odds Ratio (mutation V11I in PR, reduced susceptibility (FC>2)): 12.85
Odds Ratio (mutation V32I in PR, reduced susceptibility (FC>2)): 18.66
Odds Ratio (mutation V77I in PR, increased susceptibility (Table 3)): 0.64
Odds Ratio (mutation V82A in PR, reduced susceptibility (FC>2)): 1.12
Odds Ratio (mutation V82C in PR, reduced susceptibility (FC>2)): 3.67
Odds Ratio (mutation V82F in PR, reduced susceptibility (FC>2)): 5.47
Odds Ratio (mutation V82I in PR, reduced susceptibility (FC>2)): 2.31
Odds Ratio (mutation V82L in PR, reduced susceptibility (FC>2)): 5.44
Odds Ratio (mutation V82T in PR, reduced susceptibility (FC>2)): 1.84
